According to ChEMBL document CHEMBL5214933, “Discovery of Selenium-Containing STING Agonists as Orally Available Antitumor Agents” (J Med Chem, 2022):
Converted amounts (≈) assume the structure as drawn. The source made the active and inactive calls. No cut-off for these calls is given here.

Experiments:
[1] = system: Stimulator of interferon genes protein (Homo sapiens), Q86WV6 [UNDEFINED MUTATION]; assay: Binding affinity to recombinant human STING H232 variant expressed in Escherichia coli BL21 (DE3) assessed as thermal stabilization by measuring change in melting temperature at 2 mM incubated for 30 mins by SYPRO orange dye based differential scanning fluorimetry assay
[2] = target: T1, Stimulator of interferon genes protein (Mus musculus) (UniProt Q3TBT3); assay: Agonist activity at STING in mouse MEF cells assessed as increase in IL6 mRNA expression at 10 uM measured after 3 hrs by qRT-PCR analysis; type: cell-based; conditions: filed as agonist
T1 sequence (whole entry): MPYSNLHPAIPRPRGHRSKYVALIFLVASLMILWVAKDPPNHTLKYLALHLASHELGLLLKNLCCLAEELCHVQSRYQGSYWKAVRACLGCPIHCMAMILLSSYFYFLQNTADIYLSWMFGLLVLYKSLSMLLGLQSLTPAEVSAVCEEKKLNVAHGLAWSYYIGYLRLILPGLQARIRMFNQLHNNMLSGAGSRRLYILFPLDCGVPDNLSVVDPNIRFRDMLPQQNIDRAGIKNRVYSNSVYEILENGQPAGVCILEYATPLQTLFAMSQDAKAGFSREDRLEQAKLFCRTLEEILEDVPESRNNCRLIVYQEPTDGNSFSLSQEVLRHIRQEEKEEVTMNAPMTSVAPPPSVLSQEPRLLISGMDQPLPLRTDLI

[3] = system: MC-38; assay: In vivo activation of STING in naive […] mouse implanted with mouse MC38 cells assessed as increase in IL-6 level in plasma at 30 mg/kg, po administered as single dose and measured after 4 hrs by ELISA; type: functional, organism-based
[4] = system: 4T1; assay: Antitumor activity against mouse 4T1 cells implanted in naive BALB/c mouse assessed as increase in Ki67-positive CD8 T cells in tumor at 20 mg/kg, po administered once every 5 days by FACS analysis (reference value: 14%); type: functional; conditions: time 5 day
[5] = target: T2, Stimulator of interferon genes protein (Homo sapiens, UniProt Q86WV6); assay: Agonist activity at STING in human THP-1 cells assessed as increase in IL6 mRNA expression at 10 uM measured after 3 hrs by qRT-PCR analysis; type: cell-based; conditions: filed as agonist
Target sequence in this assay (Q86WV6 whole entry): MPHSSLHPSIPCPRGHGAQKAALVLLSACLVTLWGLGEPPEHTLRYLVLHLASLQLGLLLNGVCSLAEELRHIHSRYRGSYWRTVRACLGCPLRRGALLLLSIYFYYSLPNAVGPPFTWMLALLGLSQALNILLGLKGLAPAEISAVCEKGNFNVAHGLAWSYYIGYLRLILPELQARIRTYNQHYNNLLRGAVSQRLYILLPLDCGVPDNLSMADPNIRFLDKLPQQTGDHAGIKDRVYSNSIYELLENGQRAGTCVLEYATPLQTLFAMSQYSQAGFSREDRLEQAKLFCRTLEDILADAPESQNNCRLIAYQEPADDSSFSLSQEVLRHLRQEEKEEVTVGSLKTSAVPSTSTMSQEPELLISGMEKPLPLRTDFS

[6] = Stability in rat liver microsomes assessed as parent compound remaining at 1 uM incubated for 2 hrs in presence of NADPH by LC-MS/MS analysis; type: ADME, Microsome; conditions: read-out: Stability
[7] = target: T2, Stimulator of interferon genes protein; assay: Binding affinity to recombinant human STING H232 variant expressed in Escherichia coli BL21 (DE3) assessed as dissociation constant by single cycle SPR analysis
Target sequence in this assay (Q86WV6 whole entry, looked up, change not shown): as the sequence (Q86WV6 whole entry) above

[8] = target: T2, Stimulator of interferon genes protein; assay: Agonist activity at STING in human THP-1 cells harboring IRF-inducible luciferase reporter construct assessed as fold change in ISG signalling at 20 uM incubated for 12 hrs by Quanti-luc reagent based assay relative to control; type: cell-based; conditions: filed as agonist
Target sequence in this assay (Q86WV6 whole entry): as above

[9] = system: CT26; assay: Antitumor activity against mouse CT26 cells implanted in naive BALB/c mouse assessed as tumor growth regression at 20 mg/kg, po administered once every 5 days and measured after 30 days by digital caliper analysis relative to control; type: functional; conditions: time 30 day
[10] = target: T2, Stimulator of interferon genes protein; assay: Agonist activity at STING in human THP-1 cells harboring IRF-inducible luciferase reporter construct assessed as increase in TBK1 phosphorylation at 50 uM measured after 1 hrs by Western blot analysis; type: cell-based; conditions: filed as agonist
Target sequence in this assay (Q86WV6 whole entry): as above

[11] = system: 4T1-Luc; assay: Antitumor activity against mouse 4T1-Luc cells implanted in naive BALB/c mouse assessed as tumor growth inhibition at 20 mg/kg, po administered once every 5 days and measured after 15 days by digital caliper analysis; type: functional, organism-based; conditions: time 15.0 day
[12] = system: MC-38; assay: In vivo activation of STING in naive […] mouse implanted with mouse MC38 cells assessed as increase in IFN-gamma level in plasma at 30 mg/kg, po administered as single dose and measured after 4 hrs by ELISA; type: functional, organism-based
[13] = system: 4T1; assay: Antitumor activity against mouse 4T1 cells implanted in naive BALB/c mouse assessed as tumor growth inhibition at 20 mg/kg, po administered once every 5 days and measured every 3 days by digital caliper analysis; type: functional, organism-based; conditions: time 5.0 day
[14] = system: 4T1; assay: Antitumor activity against mouse 4T1 cells implanted in naive BALB/c mouse assessed as increase in Ki67-positive CD4 T cells in tumor at 20 mg/kg, po administered once every 5 days by FACS analysis (reference value: 4.4%); type: functional; conditions: time 5 day
[15] = Solubility of compound in PBS buffer at pH 7.4 at 3 mg incubated for 24 hrs under shaking condition by RP-HPLC analysis; type: physicochemical
[16] = system: Stimulator of interferon genes protein (Homo sapiens), Q86WV6 [UNDEFINED MUTATION]; assay: Binding affinity to recombinant human STING R232 variant expressed in Escherichia coli BL21 (DE3) assessed as thermal stabilization by measuring change in melting temperature at 0.1 mM incubated for 30 mins by SYPRO orange dye based differential scanning fluorimetry assay
[17] = Toxicity in naive BALB/c mouse implanted with mouse 4T1-Luc cells assessed as reduction in body weight at 20 mg/kg, po measured after 15 days; type: organism-based; conditions: in vivo, 360 h, time 15 day
[18] = system: CT26; assay: Immunological memory derived antitumor activity against mouse CT26 cells implanted in naive BALB/c mouse assessed as suppression of tumor growth at 20 mg/kg, po administered once every 5 days for 23 days starting from day 8 followed by reinoculation of cells into mouse on day 61 and measured for 50 days; type: functional; conditions: time 50 day
[19] = target: T2, Stimulator of interferon genes protein; assay: Agonist activity at STING in human THP-1 cells harboring IRF-inducible luciferase reporter construct assessed as increase in TBK1 phosphorylation measured after 3 hrs by Western blot analysis; type: cell-based; conditions: filed as agonist, dose 10-50 µM, DDE = dose-dependent effect
Target sequence in this assay (Q86WV6 whole entry): as above

[20] = Stability in dog plasma assessed as interconversion into (S)-4-(5,6-Dimethoxybenzo[b]selenophen-2-yl)-2-ethyl-4-oxobutanoic acid incubated for 24 hrs by normal-phase HPLC analysis; type: ADME, cell-free, Canis lupus familiaris
[21] = Permeability of the compound in PBS buffer incubated for 5 hrs by PAMPA-based LC-MS/MS analysis; type: ADME; conditions: read-out: permeability
[22] = Cmax in Sprague-Dawley rat at 50 mg/kg, po measured for 1440 mins by LC-MS/MS analysis; type: ADME, organism-based; design: time 1440 min, dose 50 mg/kg, route po; conditions: in vivo
[23] = target: T2, Stimulator of interferon genes protein; assay: Agonist activity at STING in human THP-1 cells harboring IRF-inducible luciferase reporter construct assessed as increase in IRF3 phosphorylation measured after 3 hrs by Western blot analysis; type: cell-based; conditions: filed as agonist, dose 10-50 µM, DDE = dose-dependent effect
Target sequence in this assay (Q86WV6 whole entry): as above

[24] = system: Mus musculus; assay: Immunostimulatory activity in naive […] mouse implanted with mouse MC38 cells assessed as increase in CD69-positive CD8 T cells in spleen at 30 mg/kg, po by FACS analysis (reference value: 8.9 %); type: functional, MC-38
[25] = system: CT26; assay: In vivo activation of STING in naive BALB/c mouse implanted with mouse CT26 cells assessed as increase in IFN-gamma level in plasma at 20 mg/kg, po administered as single dose and measured after 4 hrs by ELISA; type: functional, organism-based
[26] = system: Stimulator of interferon genes protein (Homo sapiens), Q86WV6 [UNDEFINED MUTATION]; assay: Binding affinity to recombinant human STING AQ variant expressed in Escherichia coli BL21 (DE3) assessed as thermal stabilization by measuring change in melting temperature at 0.1 mM incubated for 30 mins by SYPRO orange dye based differential scanning fluorimetry assay
[27] = Toxicity in immunocompetent BALB/c mouse assessed as reduction in body weight at 30 mg/kg, po measured after 3 days; type: organism-based; conditions: in vivo, 72 h, time 3 day

Sequence of Stimulator of interferon genes protein (Homo sapiens), Q86WV6 [UNDEFINED MUTATION] (Q86WV6 whole entry, looked up, stated change not applied): as the sequence (Q86WV6 whole entry) above

In the case of `CC[C@H](CC(=O)c1cc2cc(OC)c(OC)cc2[se]1)C(=O)O`, the ΔTm [1] is reported as 7.4 °C, the Activity [2] is reported as “Active” and the Activity [3] is reported as “Active”. The Activity [4] was 25.2%, the Activity [5] was “Active” and the remaining at 2 h, 1 µM [6] was 100%. For the same molecule, the Kd [7] was 23 µM, the fold change (FC) [8] was 37 and the Activity [9] was 100%. The Activity [10] was “Active”, the Activity [11] was “Active” and the Activity [12] was “Active”. The Activity [13] was “Active”, the Activity [14] was 25.4% and the solubility thermodynamic at 24 h [15] was 1200 µg/mL (≈ 3.25 mM). The ΔTm [16] was 18.1 °C, the Activity [17] was “Non-Toxic” and the Activity [18] was 100%. The Activity [19] was “Dde”, the Stability [20] was “Stable” and the Papp at 5 h [21] was 2.04 ×10⁻⁶ cm/s. The Cmax [22] was 58.2 µg/mL, the Activity [23] was “Dde” and the Activity [24] was 94.2%. For the same molecule, the Activity [25] was “Active”, the ΔTm [26] was 30.3 °C and the Activity [27] was “Non-Toxic”.
